Series [1] concerns the target T1, urease (Canavalia ensiformis, UniProt P07374). The series is described as follows: biochemical. The procedure:
During the experiments all the compounds were evaluated at 0.5 mM each in triplicate.

The test system of series [2] is ROS from zymosan activated whole blood cells. The series is described as follows: Oxidative burst assay (in vitro anti-inflammatory, ROS inhibition). The format is cell-based, human. The settings on record: for Anti-Inflammatory Activity IC50 ± SD: observed, ROS inhibition, zymosan activated whole blood cells, screening concentration 25 µg/mL, <50% inhibition = inactive; for IC50: Homo sapiens, Whole blood cell, read-out: Anti-Inflammatory Activity IC50 ± SD. The procedure: In this experiment all the compounds were evaluated at 25 µg/mL, each in triplicate.
All studies on human blood cells was carried out after an approval from independent ethics committee (Prof. Dr. Ghazala H. Rizwani Chair, IEC, Prof. Qamar Amin, Prof, Dr. Muddasir Uddin, Dr. Shahnaz Ghazi, Dr. SamiuzZaman, Prof. Dr. Ahsana Dar Farooq, Dr. M. Raza Shah member IEC), International Center for Chemical and Biological Sciences, University of Karachi, No: ICCBS/IEC-008-BC-2015/Protocol/1.0. Informed consents were obtained from the volunteers before drawing the blood. All the experiments were performed in accordance with relevant guidelines and regulations.

A short description of another series: in vitro. To be noted: mouse.
Series [3] deals with 3T3 normal (mouse fibroblast) cell line.
Method: (§1) In this experiment all the compounds were evaluated at 30 µM each in triplicate.
Series [4] concerns ROS from zymosan activated whole blood cells. The arrangement: method as in PMID 6178787, PMID 28202019. The settings on record: reported literature value of the standard; cited from earlier work.
Series [5] deals with 3T3 normal (mouse fibroblast) cell line. Kind of series: 3T3 cytotoxicity assay (MTT). The settings on record: read-out: Cytotoxicity (3T3 Cell line) IC50 ± SD; observed; screened at 30 µM; <50% inhibition at 30 µM = inactive.
Method: as §1
The target in series [6] is T1, urease. To be noted: reported literature value of the standard; read-out: Urease Inhibition Activity IC50 ± SEM (Reported) (converted); cited from earlier work.
Series [7] is described as follows: 3T3 cytotoxicity assay (MTT). To be noted: mouse.
Method: as §1
Setting [8] is: observed, screening concentration 0.5 mM, <50% inhibition = inactive, Insoluble = partially soluble in HPLC methanol of the protocol.
The mark [9] stands for this setting: observed, screening concentration 0.5 mM, <50% inhibition = inactive, Insoluble = partially soluble in HPLC methanol of the protocol, read-out: Urease Inhibition Activity IC50 ± SEM.

A word on the IC50: it is the concentration needed to halve the response being measured. One may read the melting point as the temperature, or range, at which the solid turns liquid.

In brackets after ≈: the same amount, converted by molar mass. Where two headings read alike, the source gives them in different places.

T1 sequence (P07374 whole entry, looked up): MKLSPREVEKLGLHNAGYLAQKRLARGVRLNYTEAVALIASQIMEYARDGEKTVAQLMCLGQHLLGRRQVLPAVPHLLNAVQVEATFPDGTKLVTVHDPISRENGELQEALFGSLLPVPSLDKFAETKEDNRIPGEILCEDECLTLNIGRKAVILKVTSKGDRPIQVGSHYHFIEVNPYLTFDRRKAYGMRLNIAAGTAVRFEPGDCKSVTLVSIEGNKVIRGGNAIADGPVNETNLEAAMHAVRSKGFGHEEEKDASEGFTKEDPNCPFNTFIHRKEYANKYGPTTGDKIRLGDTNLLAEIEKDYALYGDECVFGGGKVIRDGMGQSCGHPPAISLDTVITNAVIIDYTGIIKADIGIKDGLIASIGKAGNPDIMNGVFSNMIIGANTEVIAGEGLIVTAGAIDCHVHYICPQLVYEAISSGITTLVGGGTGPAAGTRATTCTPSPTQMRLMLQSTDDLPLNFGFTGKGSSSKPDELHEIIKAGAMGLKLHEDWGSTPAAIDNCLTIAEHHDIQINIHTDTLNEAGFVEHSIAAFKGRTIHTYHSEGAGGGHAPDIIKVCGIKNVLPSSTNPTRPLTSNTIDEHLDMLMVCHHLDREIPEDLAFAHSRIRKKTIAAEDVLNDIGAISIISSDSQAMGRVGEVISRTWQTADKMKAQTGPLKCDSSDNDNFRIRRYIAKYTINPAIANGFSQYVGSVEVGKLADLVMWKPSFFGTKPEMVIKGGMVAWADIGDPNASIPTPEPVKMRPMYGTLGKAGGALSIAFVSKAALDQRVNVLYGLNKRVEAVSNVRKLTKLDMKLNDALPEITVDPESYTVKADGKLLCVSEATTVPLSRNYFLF

Regarding `O=C(NNC(=S)Nc1ccc(F)cc1)c1ccncc1` [Compound 19, N-(4-Fluorophenyl)-2-isonicotinoylhydrazinecarbothioamide], the melting point lay within 191 to 192 °C. For the same compound, at urease [1], the IC50 worked out at 12.7 ± 0.8 µM. For the same compound, the “Anti-Inflammatory Activity IC50 ± SD” value in series [2] is “Inactive”. In “in vitro”, this compound registered an IC50 above 30 µM.

Regarding `O=C(NNC(=S)Nc1cc(C(F)(F)F)ccc1Cl)c1ccncc1` [Compound 8, N-(2-Chloro-5-(trifluoromethyl)phenyl)-2-isonicotinoylhydrazinecarbothioamide], the melting point lay in the range of 183 to 184 °C. The compound also registered an IC50 at urease [1] of 44.4 ± 0.43 µM. The “Anti-Inflammatory Activity IC50 ± SD” value in [2] is “Inactive”. For the same compound, in “in vitro”, the IC50 was above 30 µM.

For the compound `O=C(NNC(=S)Nc1ccccc1Br)c1ccncc1` [Compound 14, N-(2-Bromophenyl)-2-isonicotinoylhydrazinecarbothioamide], the melting point was 156 to 157 °C. In addition, half-maximal inhibition at urease [1] (IC50) required 35.8 ± 1.89 µM. In addition, the “Anti-Inflammatory Activity IC50 ± SD” value in [2] is “Inactive”. The compound further gave a 50% inhibitory concentration (IC50) in “in vitro” above 30 µM.

In the case of `O=C(NNC(=S)Nc1c(F)cccc1F)c1ccncc1` [Compound 7, N-(2,6-Difluorophenyl)-2-isonicotinoylhydrazinecarbothioamide], the melting point lay within 248 to 249 °C. Besides, the 50% inhibitory concentration (IC50) at urease [1] came to 46.3 ± 0.43 µM. The “Anti-Inflammatory Activity IC50 ± SD” value in [2] was “Inactive”. The compound further gave a 50% inhibitory concentration (IC50) in the series “in vitro” above 30 µM.

As for `N#Cc1ccc(NC(=S)NNC(=O)c2ccncc2)cc1` [Compound 10, N-(4-Cyanophenyl)-2-isonicotinoylhydrazinecarbothioamide], the melting point lay in the range of 162 to 163 °C. Also, inhibition at urease [1] was half-maximal at 15.7 ± 1.32 µM (IC50). In addition, the “Anti-Inflammatory Activity IC50 ± SD” value in series [2] was “Inactive”. The same compound returned an IC50 in the series “in vitro” above 30 µM.

With `O=C(NNC(=S)Nc1ccccc1F)c1ccncc1` [Compound 3, N-(2-Fluorophenyl)-2-isonicotinoylhydrazinecarbothioamide], the melting point lay in the range of 241 to 242 °C. At urease [1] (setting [8]), the “Urease Inhibition Activity IC50 ± SEM” value is recorded as “Inactive^c”. Besides, in [2], the “Anti-Inflammatory Activity IC50 ± SD” value is “Inactive”. The IC50 in “in vitro” is above 30 µM.

On to `O=C(NNC(=S)NC1CCCCC1)c1ccncc1` [Compound 23, N-Cyclohexyl-2-isonicotinoylhydrazinecarbothioamide], for which the melting point was in the range of 212 to 213 °C. This compound also returned an IC50 against urease [1] of 22.4 ± 1.83 µM. For the same compound, in [2], the IC50 came out at 12.3 ± 1.2 µg/mL (≈ 44.2 µM). In the series “in vitro”, this compound showed an IC50 above 30 µM.

`COc1ccc(NC(=S)NNC(=O)c2ccncc2)cc1` [Compound 20, 2-Isonicotinoyl-N-(4-methoxyphenyl) hydrazinecarbothioamide]: the results for the concentration for half-maximal inhibition (IC50) (at urease [1] (setting [9]); in series [3]) were 22 ± 1.15 µM and above 30 µM, respectively. For the same compound, the “Anti-Inflammatory Activity IC50 ± SD” value in series [2] is “Inactive”.

Turning to `CCCCCCNC(=S)NNC(=O)c1ccncc1` [Compound 25, N-Hexyl-2-isonicotinoylhydrazinecarbothioamide], the melting point was in the range of 215 to 216 °C. In addition, the “Urease Inhibition Activity IC50 ± SEM” value on urease [1] (setting [8]) is “Insoluble”. For the same compound, the “Anti-Inflammatory Activity IC50 ± SD” value in [2] is given as “Inactive”. In the series “in vitro”, this compound came in with an IC50 above 30 µM.

Consider `O=C(NNC(=S)Nc1c(Cl)cccc1Cl)c1ccncc1` [Compound 6, N-(2,6-Dichlorophenyl)-2-isonicotinoylhydrazinecarbothioamide], for which the melting point is 127 to 128 °C. In addition, the “Urease Inhibition Activity IC50 ± SEM” value on urease [1] (setting [8]) is reported as “Insoluble”. In series [2], the “Anti-Inflammatory Activity IC50 ± SD” value is given as “Inactive”. Also, the IC50 in “in vitro” was above 30 µM.

`O=C(NNC(=S)Nc1cccc(F)c1)c1ccncc1` [Compound 16, N-(3-Fluorophenyl)-2-isonicotinoylhydrazinecarbothioamide] gave a melting point of 174 to 175 °C. The IC50 on urease [1] amounted to 21.5 ± 1.3 µM. The IC50 in series [2] turned out to be 29.7 ± 1.7 µg/mL (≈ 102 µM). Moreover, the IC50 in “in vitro” is above 30 µM.

With `O=C(NNC(=S)Nc1ccccc1)c1ccncc1` [Compound 24, 2-Isonicotinoyl-N-phenylhydrazinecarbothioamide], the IC50 against urease [1] is 63.2 ± 2 µM; in the series “in vitro”, above 30 µM. In addition, the “Anti-Inflammatory Activity IC50 ± SD” value in series [2] is “Inactive”.

Regarding `CC(C)Cc1ccc(C(C)C(=O)O)cc1` (stereo not shown) [Ibuprofen, reference compound], the IC50 in series [2] amounted to 11.2 ± 1.9 µg/mL (≈ 54.3 µM). Also, the “Anti-Inflammatory Activity IC50 ± SD (reported)” value in [4] is listed as 12.97 ± 0.23 µg/mL.

In the case of `O=C(NNC(=S)Nc1cccc(I)c1)c1ccncc1` [Compound 17, N-(3-Iodophenyl)-2-isonicotinoylhydrazinecarbothioamide], the melting point fell in the range of 192 to 193 °C. The same compound yielded an IC50 at urease [1] of 14.7 ± 1.01 µM. Moreover, the IC50 in [2] was 36.9 ± 3 µg/mL (≈ 92.7 µM). For the same compound, in “in vitro”, the IC50 was above 30 µM.

Take `O=C(NNC(=S)NC1CCCC1)c1ccncc1` [Compound 13, N-Cyclopentyl-2-isonicotinoylhydrazinecarbothioamide]: the melting point lay in the range of 223 to 224 °C. The compound further yielded an IC50 against urease [1] of 13.6 ± 1.61 µM. Besides, the “Anti-Inflammatory Activity IC50 ± SD” value in series [2] is reported as “Inactive”. In the series “in vitro”, this compound had an IC50 above 30 µM.

With `O=C(NNC(=S)Nc1ccc(OC(F)(F)F)cc1)c1ccncc1` [Compound 11, 2-Isonicotinoyl-N-(4-(trifluoromethoxy)phenyl) hydrazine carbothioamide], the results for the 50% inhibitory concentration (IC50) (on urease [1] (setting [9]); in series [5]) were 13.2 ± 1.64 µM and above 30 µM, respectively. In [2], the “Anti-Inflammatory Activity IC50 ± SD” value was “Inactive”.

Turning to `O=C(NNC(=S)Nc1cc(Cl)ccc1Cl)c1ccncc1` [Compound 5, N-(2,5-Dichlorophenyl)-2-isonicotinoylhydrazinecarbothioamide], the melting point fell in the range of 172 to 173 °C. On urease [1], this compound showed an IC50 of 36.5 ± 0.14 µM. Besides, the IC50 in series [2] is 18.5 ± 1 µg/mL (≈ 54.2 µM). Further, the IC50 in the series “in vitro” is above 30 µM.

Compound `O=C(NNC(=S)Nc1cccc(Br)c1)c1ccncc1` [Compound 22, N-(3-Bromophenyl)-2-isonicotinoylhydrazinecarbothioamide] showed a melting point of 192 to 193 °C. At urease [1], this compound returned an IC50 of 22.1 ± 1.91 µM. Besides, in series [2], the IC50 worked out at 25.1 ± 0.4 µg/mL (≈ 71.5 µM). The compound also returned an IC50 in “in vitro” above 30 µM.

Turning to `O=C(NNC(=S)Nc1cc(Cl)c(Cl)cc1Cl)c1ccncc1` [Compound 21, Isonicotinoyl-N-(2,4,5-trichlorophenyl) hydrazinecarbothioamide], the IC50 at urease [1] (setting [9]) is 28.2 ± 1.48 µM; in series [3], above 30 µM. The “Anti-Inflammatory Activity IC50 ± SD” value in series [2] was “Inactive”.

For `O=C(NNC(=S)Nc1ccc(Cl)cc1)c1ccncc1` [Compound 18, N-(4-Chlorophenyl)-2-isonicotinoylhydrazine carbothioamide], the results for the IC50 on urease [1] and in “in vitro” were 26.3 ± 1.59 µM and 29.5 ± 1.9 µM, respectively. In addition, in series [2], the “Anti-Inflammatory Activity IC50 ± SD” value is “Inactive”.

`O=C(NNC(=S)Nc1c(F)c(F)c(F)c(F)c1F)c1ccncc1` [Compound 12, 2-Isonicotinoyl-N-(perfluorophenyl) hydrazinecarbothioamide]: the IC50 at urease [1] (setting [9]) is 12.3 ± 1.04 µM; in [3], above 30 µM. Also, in series [2], the “Anti-Inflammatory Activity IC50 ± SD” value was found to be 27.7 ± 2.4 µg/mL.

The compound `O=C(NNC(=S)Nc1ccc(F)cc1F)c1ccncc1` [Compound 15, N-(2,4-Difluorophenyl)-2-isonicotinoylhydrazinecarbothioamide] came in with a melting point of 191 to 192 °C. Further, the IC50 at urease [1] came out at 34.1 ± 0.45 µM. The “Anti-Inflammatory Activity IC50 ± SD” value in series [2] is recorded as “Inactive”. This compound had an IC50 in the series “in vitro” above 30 µM.

Take `CC(=O)NO` [Aetohydaoxamic acid, acetohydroxamic acid, reference compound]: the IC50 is 20.3 ± 0.4 µM on urease [1] (setting [9]) and 17.2 µM at urease [6].

Regarding `NNC(=O)c1ccncc1` [Isoniazid(1), Isoniazid], the “Urease Inhibition Activity IC50 ± SEM” value on urease [1] (setting [8]) is reported as “Inactive”. Besides, the “Anti-Inflammatory Activity IC50 ± SD” value in series [2] is given as “Inactive”. In addition, half-maximal inhibition in [7] (IC50) was put at 28.5 ± 1.2 µM.

Turning to `O=C(NNC(=S)Nc1cccc([N+](=O)[O-])c1)c1ccncc1` [Compound 27, 2-Isonicotinoyl-N-(3-nitrophenyl) hydrazinecarbothioamide], the “Urease Inhibition Activity IC50 ± SEM” value on urease [1] (setting [8]) is “Insoluble^d”. Further, in [2], the “Anti-Inflammatory Activity IC50 ± SD” value is given as “Inactive”. The IC50 in series [3] is above 30 µM.

`O=C(NNC(=S)Nc1ccc(Cl)c(C(F)(F)F)c1)c1ccncc1` [Compound 9, N-(4-Chloro-3-(trifluoromethyl)phenyl)-2 isonicotinoylhydrazinecarbothioamide]: the melting point lay within 231 to 232 °C. Besides, on urease [1], the IC50 came to 14.2 ± 1.38 µM. In series [2], the IC50 stood at 26.7 ± 2.5 µg/mL (≈ 71.2 µM). In addition, the IC50 in “in vitro” is above 30 µM.

For the compound `O=C(NNC(=S)Nc1cccc(N=C=S)c1)c1ccncc1` [Compound 26], the melting point is 195 to 196 °C.

The compound `O=C(NNC(=S)Nc1cccc(Cl)c1Cl)c1ccncc1` [Compound 4, N-(2,3-Dichlorophenyl)-2-isonicotinoylhydrazinecarbothioamide] returned a melting point of 198 to 199 °C. This compound also came in with an IC50 at urease [1] of 38.8 ± 0.35 µM. The “Anti-Inflammatory Activity IC50 ± SD” value in series [2] is recorded as “Inactive”. Besides, in “in vitro”, the IC50 is above 30 µM.
